According to patent US20230303613A1, “3′3′ CYCLIC DINUCLEOTIDES WITH AN ALKENYLENE” (Institute of Organic Chemistry and Biochemistry AS CR, v.v.i, priority 2020, published 2023):
Like-named read-outs stand apart in the source and are kept apart here.

What was measured:
AQ STING (G230A-R293Q) = target: T1, AQ STING (G230A-R293Q) (Homo sapiens, UniProt Q86WV6, G230A/H232R/R293Q); assay: Differential Scanning Fluorimetry with AQ STING; assay type: binding; conditions: thermal shift vs apoprotein, 150 µM CDN, truncated human AQ STING 0.1 mg/ml; for ΔTm at 150 µM: read-out: DSF ΔTm AQ STING
T1 construct: 8xHis (N, cleaved yes); SUMO (N, cleaved yes); made in house; host or cells: E. coli Rosetta-gami B (DE3)
Text: (§1) Purified PCR products were cleaved with restriction enzymes BamHI (cat. # R0136S, NEB, Ipswich, USA) and NotI (cat. # R0189S, NEB, Ipswich, USA) and cloned into the pSUMO vector linearized with the identical enzymes.
(§2) Bacterial pellets were re-suspended in ice-cold lysis buffer containing 50 mmol.1^-1 TrisCl (cat. # T1503, Sigma Aldrich, Czech Republic) pH 8.0, 300 mmol.1^-1 NaCl, 3 mmol.1^-1 β-mercaptoethanol (cat. # M6250, Sigma Aldrich, Czech Republic), 10% glycerol (cat. # G5516, Sigma Aldrich, Czech Republic) and 20 mmol.1^-1 imidazole (cat. # I5513, Sigma Aldrich, Czech Republic) using Dounce homogenizer. DNase I (cat. # D5025, Sigma Aldrich, Czech Republic) and RNase A (cat. # R6513, Sigma Aldrich, Czech Republic) were added (final concentration 50 µg/ml) together with MgCl2 (final concentration 5 mmol.l^-1) to the homogenate and bacteria were lysed using French Press G-M™ High-Pressure Cell Press Homogenizer (1500 psi, 3 cycles). […] The resin was poured into a chromatography column, washed with 50 ml buffer A (50 mmol.1^-1 TrisCl (pH 8.0), 800 mmol.1^-1 NaCl, 3 mmol.1^-1 β-mercaptol; 10% glycerol; 20 mmol.1^-1 imidazole) and 8-His-SUMO tagged STING proteins were eluted with 15 ml buffer A containing 300 mmol.1^-1 imidazole. […] Proteins were concentrated with Amicon® Ultra-15 10 K device (cat. # UFC901008, Merck Millipore, Billerica, USA) and flash frozen in liquid N2.
(§3) 20 µL solutions of the reaction mixtures were pipetted in triplicates into 96 well optical reaction plates and thermal denaturation of samples were performed on real time PCR cycler (LightCycler® 480 Instrument II - Roche, Basel, Switzerland). The first derivative of the thermal denaturation curves was performed to calculate denaturing temperatures of STING - CDN complexes and STING apoproteins. The thermal shift for each CDN was calculated by subtracting the average denaturing temperature of STING apoprotein from the average denaturing temperature of STING CDN complex.

WT STING [1] = target: T2, WT STING (Homo sapiens, UniProt Q86WV6, H232R); assay: Digitonin assay using 293T wtSTING-FL reporter cells; assay type: cell-based; conditions: 293T wtSTING-FL cells; 30 minutes in Digitonin buffer, then 5 hours; ISRE firefly luciferase reporter
Text: (§4) Two complementary oligonucleotides of the sequence […] […] […] […] […] The oligonucleotides were mixed in equal molar amounts, hybridized, and cleaved by restriction endonucleases HindIII (cat. #. R0104S, NEB, Ipswich, USA) and BglII (cat. # R0144S, NEB, Ipswich, USA). Ultimately, they were ligated into plasmid pGL4.27 (cat. # E6651, Promega, Madison, USA) linearized with the same enzymes. As result the sequence with four ISRE sites was placed upstream of the minimum promoter of firefly luciferase reporter gene.
(§5) After 5 minutes incubation at room temperature (RT), 250 µL of the mixture was added dropwise to the cells in one well. Cells were incubated 36 hours at 37° C. with 5% CO2, and then detached with 0.05% Trypsin and 0.22 g/L EDTA (both cat. # L0941, Biowest, Riverside, USA).
(§6) Transfected cells were seeded onto poly-D-lysine coated six well plates at density 50,000 cells per 1 cm^2 in DMEM medium with high glucose containing 10% heat inactivated FBS, 30 µg/mL blasticidin (cat. # ant-bl-05, InvivoGen, San Diego, USA), 0.06 mg/ml Penicillin G and 0.1 mg/ml Streptomycin Sulfate (both cat. #. L0018, Biowest, Riverside, USA). The medium was replenished every 3 - 4 days until visible colonies of cells resistant to blasticidin were formed.
(§7) Blasticidin resistant cells stably expressing WT STING were further transfected with […] plasmid following the same procedure as described above. […] Homogeneous culture of stably double transfected cells was prepared by limiting dilution of cells in 96 well plates and wells with cells were selected that originated from a single cell.
The medium was removed next day and three fold serial dilutions of compounds in Digitonin buffer containing 50 mmol.l^-1 HEPES (cat. # H3375, Sigma Aldrich, Czech Republic) pH 7.0, 100 mmol.1^-1 KCl, 3 mmol.l^-1 MgCl2, 0.1 mmol.l^-1 DTT (cat. # D0632, Sigma Aldrich, Czech Republic), 85 mmol.1^-1 Sucrose (cat. # S7903, Sigma Aldrich, Czech Republic), 0.2% BSA (cat. # A2153, Sigma Aldrich, Czech Republic), 1 mmol.l^-1 ATP (cat. # A1852, Sigma Aldrich, Czech Republic), 0.1 mmol.1^-1 GTP (cat. # G8877, Sigma Aldrich, Czech Republic), and 10 µg/mL Digitonin A (cat. # D141, Sigma Aldrich, Czech Republic) were added to the cells. The buffer was removed after 30 minutes incubation at 37° C. with 5% CO2, the cells were washed once with 100 µl of cultivation medium, and 100 µl of medium was added to each well. The plates with cells were incubated for 5 hours at 37° C. with 5% CO2, 50µl of the medium was removed and 30 µl of ONE-Glo^Tm Luciferase Assay System reagent (cat. # E6120, Promega, Madison, USA) was added to each well. Luminescence was read on Synergy H1 (Biotek, Winooski, USA).
Target sequence in this assay (Q86WV6 whole entry H232R): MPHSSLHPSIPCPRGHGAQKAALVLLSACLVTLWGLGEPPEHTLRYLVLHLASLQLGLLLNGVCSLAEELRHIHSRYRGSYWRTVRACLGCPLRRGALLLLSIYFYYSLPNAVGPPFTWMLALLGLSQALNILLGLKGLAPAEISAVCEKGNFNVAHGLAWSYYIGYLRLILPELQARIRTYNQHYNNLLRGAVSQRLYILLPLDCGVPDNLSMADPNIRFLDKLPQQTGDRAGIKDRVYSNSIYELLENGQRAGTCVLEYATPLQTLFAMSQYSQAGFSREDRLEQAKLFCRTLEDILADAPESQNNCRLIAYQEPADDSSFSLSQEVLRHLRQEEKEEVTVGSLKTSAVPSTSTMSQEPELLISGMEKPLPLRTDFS

WT STING [2] = target: T2, WT STING; assay: Differential Scanning Fluorimetry with WT STING; assay type: binding; parameters: 8xHis (N, cleaved yes); SUMO (N, cleaved yes); made in house; host or cells: E. coli Rosetta-gami B (DE3); conditions: thermal shift vs apoprotein, 150 µM CDN, truncated human WT STING 0.1 mg/ml; for ΔTm at 150 µM: read-out: DSF ΔTm WT STING
Text: as §1, §2, §3
Target sequence in this assay (Q86WV6 140-343 H232R): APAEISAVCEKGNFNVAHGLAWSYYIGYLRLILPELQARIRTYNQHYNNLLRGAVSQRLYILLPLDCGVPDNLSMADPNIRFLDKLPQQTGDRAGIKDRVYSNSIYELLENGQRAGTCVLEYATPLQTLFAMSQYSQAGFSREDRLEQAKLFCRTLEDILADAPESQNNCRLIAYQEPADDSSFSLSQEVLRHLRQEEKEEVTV

WT STING [3] = target: T2, WT STING; assay: 293T WT STING standard reporter assay; assay type: cell-based; conditions: 293T wtSTING-FL cells; 7 hours with compound, no digitonin; ISRE firefly luciferase reporter
Text: as §4, §5, §6, §7
Target sequence in this assay (Q86WV6 whole entry H232R): as the sequence (Q86WV6 whole entry H232R) above
The medium was removed next day and three-fold serial dilutions of compounds in 100 µl medium were added to the cells. The plates with cells were incubated for 7 hours at 37° C. with 5% CO2. After 50 µl of the medium was removed, 30 µl of ONE-Glo^Tm Luciferase Assay System reagent (cat. # E6120, Promega, Madison, USA) was added to each well and luminescence was read on Synergy H1 (Biotek, Winooski, USA).

[4] = tested on: peripheral blood mononuclear cell (PBMC); assay: Peripheral blood mononuclear cell assay; assay type: cell-based; conditions: 1h with compound, washed, 15 hour incubation
Protocol: Selected compounds were tested in an in vitro peripheral blood mononuclear cell (PBMC) assay. Freshly isolated PBMCs were seeded into U-shaped shaped 96-well plates at desity 500,000 cells per well in 50 µl of RPMI 1640 medium supplemented with 10% heat inactivated FBS. Serially dilluted tested compounds were added to wells in 50 µl of cultivation medium and cell were incubated with compounds for 1h at 37° C. with 5% CO2. Plates with cells were then spun 500 g for 5 minutes and medium was removed. Cells were washed twice with the cell culture medium by the use of centrifugation and gently resuspended in 100 µl medium without compounds. After 15 hour incubation at 37° C. with 5% CO2, the cell culture medium was collected and the levels of interferon-alpha (INF-α), interferon-gamma (INF-γ) and tumor necrosis factor-alpha (TNF-α) were determined with ProcartaPlex Assays (ThermoFisher, Waltham, USA) and MAGPIX System (Merck KGaA, Darmstadt, Germany).

T1 sequence (Q86WV6 140-343 G230A/H232R/R293Q): as the sequence (Q86WV6 140-343 H232R) above, with G91A, R154Q counted along it

Nc1nc(N)c2ncn([C@@H]3O[C@@H]4COP(=O)(O)O[C@H]5[C@@H](O)[C@H](n6cnc7c(=O)[nH]c(N)nc76)O[C@@H]5/C=C\P(=O)(O)O[C@H]4[C@H]3O)c2n1 (stereo in doubt) [Compound 69, (1S,6R,8R,9R,10S,15R,17R,18R)-17-(2-amino-6-oxo-6,9-dihydro-1H-purin-9-yl)-8-(2,6-diamino-9H-purin-9-yl)-3,9,12,18-tetrahydroxy-2,4,7,11,16-pentaoxa-3λ^5,12λ^5-diphosphatricyclo[13.3.0.0^6,^10]octadec-13-ene-3,12-dione]
ΔTm at 150 µM (AQ STING (G230A-R293Q)): 3.5 °C | EC50 (WT STING [1]): 32800 nM | ΔTm at 150 µM (WT STING [2]): 1.2 °C

CSc1ncnc2c1ncn2[C@@H]1O[C@@H]2COP(=O)(O)O[C@H]3[C@@H](O)[C@H](n4cnc5c(=O)[nH]c(N)nc54)O[C@@H]3/C=C\P(=O)(O)O[C@H]2[C@H]1O (stereo in doubt) [Compound 70, (1S,6R,8R,9R,10S,15R,17R,18R)-17-(2-amino-6-oxo-6,9-dihydro-1H-purin-9-yl)-3,9,12,18-tetrahydroxy-8-[6-(methylsulfanyl)-9H-purin-9-yl]-2,4,7,1 1,16-pentaoxa-3λ^5,12λ^5-diphosphatricyclo[13.3.0.0^6,^10]octadec-13-ene-3,12-dione]
ΔTm at 150 µM (AQ STING (G230A-R293Q)): 1.1 °C | EC50 (WT STING [1]): 16100 nM | ΔTm at 150 µM (WT STING [2]): 0.5 °C

Nc1ncnc2c1ncn2[C@@H]1O[C@@H]2COP(=O)(O)O[C@H]3[C@@H](O)[C@H](n4cnc5c(N)ncnc54)O[C@@H]3COP(=O)(O)O[C@H]2[C@H]1O [3′3′c-di-AMP, 3′3′-c-di-AMP, reference compound]
DSF ΔTm AQ STING (AQ STING (G230A-R293Q)): 9.3 °C | EC50 (WT STING [1]): 300 nM | DSF ΔTm WT STING (WT STING [2]): 2.6 °C

Nc1nc2c(ncn2[C@@H]2O[C@@H]3COP(=O)(O)O[C@H]4[C@@H](O)[C@H](n5cnc6c(=O)[nH]c(N)nc65)O[C@@H]4COP(=O)(O)O[C@H]3[C@H]2O)c(=O)[nH]1 [3′3′c-di-GMP, 3′3′-c-di-GMP, reference compound]
DSF ΔTm AQ STING (AQ STING (G230A-R293Q)): 7.7 °C | EC50 (WT STING [1]): 5800 nM | DSF ΔTm WT STING (WT STING [2]): 2.6 °C

Nc1nc2c(ncn2[C@@H]2O[C@@H]3COP(=O)(O)O[C@H]4C[C@H](n5cnc6c(N)ncnc65)O[C@@H]4/C=C/P(=O)(O)O[C@H]3[C@H]2F)c(=O)[nH]1 [Compound 59, (1S,6R,8R,9R,10R,13E,15R,17R)-8-(2-amino-6-oxo-6,9-dihydro-1H-purin-9-yl)-17-(6-amino-9H-purin-9-yl)-9-fluoro-3,12-dihydroxy-2,4,7,11,16-pentaoxa-3λ^5, 12λ^5-diphosphatricyclo[13.3.0.0^6,^10]octadec-13-ene-3,12-dione]
EC50 (WT STING [1]): 700 nM

Nc1ncnc2c1ncn2[C@@H]1O[C@@H]2/C=C/P(=O)(O)O[C@H]3C[C@H](n4cnc5c(N)ncnc54)O[C@@H]3COP(=O)(O)O[C@H]2[C@H]1F [Compound 60, (1R,6R,8R,10S,13E,15R,17R,18R)-8,17-bis(6-amino-9H-purin-9-yl)-18-fluoro-3,12-dihydroxy-2,4,7,11,16-pentaoxa-3λ^5,12λ^5-diphosphatricyclo[13.3.0.0^6,^10]octadec-13-ene-3,12-dione]
EC50 (WT STING [3]): 71800 nM | EC50 (WT STING [1]): 280 nM | EC50 ([4]; PBMC, IFN-α level in medium, read-out: PBMC EC50 IFN-α): > 500000 nM | EC50 ([4]; PBMC, IFN-γ level in medium, read-out: PBMC EC50 IFN-γ): 164000 nM | EC50 ([4]; PBMC, TNF-α level in medium, read-out: PBMC EC50 TNF-α): 100000 nM

Nc1ncnc2c1ncn2[C@@H]1O[C@@H]2COP(=O)(O)O[C@H]3C[C@H](n4cnc5c(N)ncnc54)O[C@@H]3/C=C/P(=O)(O)O[C@H]2[C@H]1F [Compound 61, (1S,6R,8R,9R,10R,13E,15R,17R)-8,17-bis(6-amino-9H-purin-9-yl)-9-fluoro-3,12-dihydroxy-2,4,7,11,16-pentaoxa-3λ^5,12λ^5-diphosphatricyclo[13.3.0.0^6,10]octadec-13-ene-3,12-dione]
EC50 (WT STING [3]): > 200000 nM | EC50 (WT STING [1]): 750 nM

{[(1R,6R,8R,9R,10R,13E,15R,17R,18R)-8,17-bis(6-amino-9H-purin-9-yl)-9,18-difluoro-3,12-dioxo-3-({[(propan-2-yloxy)carbonyl]oxy}methoxy)-2,4,7,11,16-pentaoxa-3λ^5,12λ^5- diphosphatricyclo[13.3.0.0^6,^10]octadec-13-en-12-yl]oxy}methyl propan-2-yl carbonate [Compound 81c]
EC50 (WT STING [3]): 122 nM | EC50 ([4]; IFN-α level in medium, read-out: PBMC EC50 IFN-α): 600 nM | EC50 ([4]; IFN-γ level in medium, read-out: PBMC EC50 IFN-γ): 1300 nM | EC50 ([4]; TNF-α level in medium, read-out: PBMC EC50 TNF-α): 250 nM
